The numbers were not newly measured in US8871277B2, “Particulate wood preservative and method for producing the same” (Osmose, Inc., priority 2003, dated 2014), which cites them from elsewhere.

Like-named read-outs stand apart in the source and are kept apart here.

The conditions of series [1]: solubility product constant.
The conditions of series [2]: Synthetic Precipitation Leaching Procedure.

On to copper sulfide, for which the Ksp in series [1] was 6 E−36. Consider copper 8-quinolinolate, for which the Ksp in series [1] is 2 E−30.

Turning to copper citrate, in series [2], the “copper in leachate from treated wood” value is on record as 62 mg copper per liter.

Regarding `[Cu]` [copper], the solubility of copper by setting is: (pH 4) 640 ppm; (pH 7) 2 ppm; (pH 10) “about 0.01 ppm”.
